Article PMC9787607, “A Novel Protocol for the Synthesis of 1,2,4-Oxadiazoles Active against Trypanosomatids and Drug-Resistant Leukemia Cell Lines” (Tropical Medicine and Infectious Disease, 2022)

Columns and labels:
[1] = test system: L. amazonensis promastigotes; experiment: Anti-L. amazonensis promastigote assessment (MTT); assay type: cell-based; conditions: Leishmania amazonensis; 48 h, MTT; read-out: EC50 L. amazonensis promastigotes
Protocol: Promastigotes of L. amazonensis (MHOM/BR/75/Josefa) were cultured in Schneider’s insect medium (SIM) with 10% FBS. Parasites were harvested at the stationary growth phase for assessment against promastigotes and 24 h after cultures reached the stationary growth phase for infection assays. […]. Complete SIM media and amphotericin B (AmB) at 10 µM were used as negative and positive controls, respectively. A vehicle control containing SIM with 10% SFB media and 0.3% DMSO was maintained for comparison. The final volume of the experiment was 100 µL. After incubation for 48 h at 27 °C, MTT salt solution in PBS was added (3.0 mM, 20 µL per well). After incubation for 2 h at 27 °C, the MTT formazan was dissolved by adding 120 µL of solubilizing buffer (50% isopropanol, 40% acetate buffer pH 5.4, 10% Triton-X). Absorbance was measured using a microplate reader at 570 nm.
(§1) The percent cell or parasite viability was calculated by the formula: % viability = [(A − P)/(N − P)] × 100, A = absorbance of specific well, P = positive control, N = negative control. Determination of half-maximal effective concentrations (EC50), calculated by logarithmic regression, and significance analysis (p < 0.05), using ANOVA and Dunnett’s test, by GraphPad Prism 7.0 software. The results are expressed as the mean and standard deviation (SD) of three independent experiments.

[2] = Cytotoxicity to LLC-MK2 host cells (MTT); assay type: cell-based; conditions: rhesus monkey, LLC-MK2 cells (kidney fibroblasts); screening at 50 μM, 120 h
Protocol: LLC-MK2 kidney fibroblasts (ATCC) and RAW 264.7 macrophages (ATCC) were cultivated in culture flasks in complete DMEM with 5% FBS at 37 °C in 5% CO2. The LLC-MK2 cell monolayer was detached by treatment with trypsin-EDTA 0.05% for 5 min at 37 °C. The RAW cell monolayer was detached mechanically. In both cases, the cells were centrifuged at 480× g for 6 min and resuspended in complete DMEM with 5% FBS, and the cell density was determined by counting with trypan-blue dye exclusion on Neubauer chambers before use.
LLC-MK2 cells were seeded in a 96-well microplate (1.0 × 10^4 cells per well) in complete DMEM with 5% FBS (120 µL per well). After incubation for 24 h at 37 °C in 5% CO2, the medium was renewed, and compounds were added at a range of concentrations in triplicate (50 μM or 100–1 μM). Untreated cells and cells treated with DMEM and 10% DMSO were used as negative and positive controls, respectively. Vehicle control containing DMEM and 0.3% DMSO was maintained for comparison. After incubation for 120 h at 37 °C in 5% CO2, the medium was renewed, and MTT salt solution in PBS was added (3.0 mM, 20 µL per well). After incubation for 2 h at 37 °C in 5% CO2, the supernatant was removed, and MTT formazan was dissolved in DMSO (150 µL per well). Absorbance was measured using a microplate reader at 570 nm.
as §1

[3] = Cytotoxicity to BALB/c mouse total splenocytes (MTT); assay type: cell-based; conditions: male, total splenocytes (primary), 100 μM, 48 h, compared to the untreated control (Table S1)
Protocol: BALB/c mouse total splenocytes were harvested from male mice between 6–8 weeks old. After euthanasia, the spleens were removed and macerated in DMEM. After centrifugation, the cells were treated with hemolytic ACK buffer at 37 °C for 5 min. […] After incubation for 48 h at 37 °C in 5% CO2, cell viability was determined after the addition of 20 µL per well of a solution containing MTT salt (3.0 mM) and phenazine metasulphate (0.72 mM). After further incubation for 1 h at 37 °C, the medium was removed, and DMSO was added to dissolve the dark-blue formazan crystals formed by MTT reduction. Absorbance was measured on a microplate reader at 570 nm.
as §1

K562 = experiment: MTT cytotoxicity to CML cell line K562; assay type: cell-based; conditions: Homo sapiens, 72 h
Protocol: (§2) The CML cell lines K562, Lucena-1 (K562/VCR), and FEPS (K562/DNR) were cultured in RPMI-1640 medium supplemented with 25 mM HEPES and 2 g L^−1 sodium bicarbonate adjusted to pH 7.4 with NaOH, 100 U penicillin and […] streptomycin. All media were supplemented with 10% FBS. Dr. Vivian M. Rumjanek (Instituto de Bioquímica Médica, UFRJ, Brazil) kindly donated Lucena-1 and FEPS cells. Briefly, K562 cells were exposed to increasing concentrations of the chemotherapeutic drugs vincristine sulfate (VCR) and daunorubicin hydrochloride (DNR) (both from Sigma-Aldrich), as described previously. Lucena-1 (K562/VCR) and FEPS (K562/DNR) cells were cultured in the presence of either 60 nM VCR or 500 nM DNR to maintain the MDR phenotypes. For subcultures, cells were harvested every three days followed by washing with cold FBS, and a final concentration of 2 × 10^4 cells mL^−1 was maintained at 37 °C in 5% CO2.
(§3) Cell viability was determined by the 3-(4,5-dimethylthiazol-2-yl)-2,5-diphenyltetrazolium (MTT) colorimetric assay. CML cells (2 × 10^4 cells·mL^−1) were incubated for 72 h at 37 °C, followed by treatment with compounds at a range of concentrations (100–1 μM). Negative controls were prepared with 0.5% DMSO. An MTT salt solution was added to each well to a final concentration of 0.5 g·L^−1, and plates were incubated at 37 °C in 5% CO2 for 3 h. After centrifugation, 200 μL DMSO was added to dissolve the dark-blue formazan crystals formed by MTT reduction. Absorbance was measured on a microplate reader at 570 nm, which is directly proportional to formazan contents and indicative of living cells.
as §1

[4] = test system: T. cruzi amastigotes (Tulahuen C2C4 LacZ strain); experiment: microbe, parasite or virus in culture; assay type: cell-based, Trypanosoma cruzi; conditions: Trypanosoma cruzi, TULAHUEN, LLC-MK2, 120 h, screening at 50 μM, 120 h, compared with untreated controls
Protocol: To a monolayer of 1.0 × 10^7 LLC-MK2 cells in a 150 cm^2 culture flask were added 5.0 × 10^7 trypomastigotes of T. cruzi expressing the […] (Tulahuen C2C4 LacZ) in complete DMEM with 2.5% FBS. The infection was allowed to occur for 24 h, the supernatant was removed, and the cell monolayer was washed with PBS. Complete DMEM with 2.5% FBS was renewed every 2 days up to the sixth day after infection. Trypomastigote forms were collected daily from the supernatant between days 7 and 12 after infection, enriched by differential centrifugation (1500× g for 10 min, 5580× g for 20 min), and resuspended in complete DMEM with 5% FBS. Parasite density was determined by counting the mobile trypomastigotes on Neubauer chambers before use.
. The medium was renewed, and trypomastigote forms of T. cruzi (Tulahuen C2C4 LacZ strain, 2.0 × 10^5 parasites per well) were added. After incubation for 24 h at 37 °C in 5% CO2, the cell monolayer was washed with PBS to remove noninternalized parasites. DMEM without phenol red and 5% FBS was added, and infected cells were treated with compounds at a range of concentrations in triplicate (50 μM or 100–1 μM). Untreated infected cells and noninfected LLC-MK2 cells were used as negative and positive controls, respectively. Vehicle control containing DMEM without phenol red and 0.3% DMSO was maintained for comparison. After incubation for 120 h at 37 °C in 5% CO2, a solution containing […] and 0.8% IGEPAL CA-630 in PBS (30 µL per well), followed by further incubation for 2 h at 37 °C in 5% CO2. Absorbance was measured using a microplate reader at 570 nm.
as §1

FEPS (K562/DNR) = experiment: MTT cytotoxicity to MDR CML cell line FEPS; assay type: cell-based, human; conditions: for RR (relative resistance) FEPS: (EC50 MDR cells)/(EC50 parental cells), FEPS/K562; for EC50: Homo sapiens, K562, 72 h, MTT
Protocol: as §2, §3, §1

Lucena-1 (K562/VCR) = experiment: cells; assay type: cell-based, human; conditions: for RR (relative resistance) Lucena-1: (EC50 MDR cells)/(EC50 parental cells), Lucena-1/K562; for EC50: Homo sapiens, Lucena 1, 72 h, read-out: EC50 Lucena-1
Protocol: as §2, §3, §1

Compound | EC50 [1] | viability at 120 h, 50 µM [2] | viability at 48 h, 100 µM [3] | EC50 (K562) | melting point | viability at 50 µM [4] | RR (relative resistance) FEPS (FEPS (K562/DNR)) | EC50 (FEPS (K562/DNR)) | RR (relative resistance) Lucena-1 (Lucena-1 (K562/VCR)) | EC50 (Lucena-1 (K562/VCR))
COc1cccc(/C=C/c2nc(-c3cc(OC)c(OC)c(OC)c3)no2)c1 [Compound 22, (E)-3-(3,4,5-trimethoxyphenyl)-5-[2-(3-methoxyphenyl)-vinyl]-1,2,4-oxadiazole] | > 100 µM | 87.1 ± 1.7% | 63.5 ± 2.4% | > 100 µM | 117 to 119 °C | 66.1 ± 2.3% | <0.36 | 36.1 ± 12.4 µM | <0.73 | 72.9 ± 3 µM
COc1cc(-c2noc(/C=C/c3ccco3)n2)cc(OC)c1OC [Compound 25, (E)-3-(3,4,5-trimethoxyphenyl)-5-[2-(fur-2-yl)vinyl]-1,2,4-oxadiazole] | > 100 µM | 73.5 ± 1.7% | 63.7 ± 4.7% | 72.8 ± 9.1 µM | 144 to 146 °C | 79.5 ± 5.5% | 0.74 | 53.7 ± 3.6 µM | 1.05 | 76.6 ± 6.1 µM
C(=C\c1nc(-c2ccccc2)no1)/c1ccc2c(c1)OCCO2 [Compound 14, (E)-3-phenyl-5-[2-(3,4-ethylenedioxy-phenyl)vinyl]-1,2,4-oxadiazole] | 92.5 ± 3.8 µM | 84.5 ± 4.6% | 93.6 ± 5.9% | > 100 µM | 143 to 145 °C | 60.5 ± 3.8% | <0.41 | 41.1 ± 4.9 µM | <0.64 | 64 ± 3.2 µM
O=[N+]([O-])c1ccc(/C=C/c2nc(-c3ccccc3)no2)cc1 [Compound 20, (E)-3-phenyl-5-[2-(4-nitrophenyl)vinyl]-1,2,4-oxadiazole] | > 100 µM | 78.2 ± 2.1% | 77.8 ± 4.2% | 34.4 ± 7.4 µM | 205 to 208 °C | 74.5 ± 5.4% | 1.35 | 46.4 ± 4.9 µM | 1.33 | 45.7 ± 4.3 µM
COc1ccc(/C=C/c2nc(-c3ccccc3)no2)cc1 [Compound 11, (E)-3-phenyl-5-[2-(4-methoxyphenyl)vinyl]-1,2,4-oxadiazole] | > 100 µM | 77.4 ± 4% | 84.4 ± 2.9% | > 100 µM | 132 to 135 °C | 86.2 ± 5.3% | <0.59 | 58.8 ± 6.1 µM | – | > 100 µM
C(=C\c1nc(-c2ccccc2)no1)/c1ccccc1 [Compound 9, (E)-3-phenyl-5-[2-phenylvinyl]-1,2,4-oxadiazole] | 74.5 ± 4.9 µM | 87.2 ± 4% | 102 ± 7.4% | > 100 µM | – | 87 ± 4.9% | – | > 100 µM | – | > 100 µM
Fc1ccc(/C=C/c2nc(-c3ccccc3)no2)cc1 [Compound 18, (E)-3-phenyl-5-[2-(4-fluorophenyl)vinyl]-1,2,4-oxadiazole] | > 100 µM | 90.7 ± 4.3% | 102 ± 11.5% | > 100 µM | – | 82.8 ± 4.7% | <0.67 | 66.7 ± 9.6 µM | <0.59 | 59.9 ± 12.2 µM
Clc1ccc(/C=C/c2nc(-c3ccccc3)no2)cc1 [Compound 19, (E)-3-phenyl-5-[2-(4-chlorophenyl)vinyl]-1,2,4-oxadiazole] | > 100 µM | 77.8 ± 0.9% | 90.5 ± 5.3% | 47.1 ± 1.2 µM | – | 83.4 ± 5.9% | >2.12 | > 100 µM | 0.92 | 43.4 ± 3.4 µM
